Patent publication US7521444B2, “Compounds for the treatment of hepatitis C” (Bristol-Myers Squibb Company, priority 2007, dated 2009)

Assays:
HCV NS5B = biological target: T1, HCV NS5B (Hepatitis C virus genotype 1b, UniProt Q9WMX2); assay: HCV NS5B RdRp enzyme assay (standard or modified); type: biochemical; details: HCV NS5B RdRp genotype 1b enzyme; standard or modified assay not stated
T1 construct: The protein was expressed with an 18 amino acid C-terminal truncation to enhance the solubility; made in house; host or cells: E. coli BL21(DE3), pET21a
T1 sequence (Q9WMX2 2420-2992): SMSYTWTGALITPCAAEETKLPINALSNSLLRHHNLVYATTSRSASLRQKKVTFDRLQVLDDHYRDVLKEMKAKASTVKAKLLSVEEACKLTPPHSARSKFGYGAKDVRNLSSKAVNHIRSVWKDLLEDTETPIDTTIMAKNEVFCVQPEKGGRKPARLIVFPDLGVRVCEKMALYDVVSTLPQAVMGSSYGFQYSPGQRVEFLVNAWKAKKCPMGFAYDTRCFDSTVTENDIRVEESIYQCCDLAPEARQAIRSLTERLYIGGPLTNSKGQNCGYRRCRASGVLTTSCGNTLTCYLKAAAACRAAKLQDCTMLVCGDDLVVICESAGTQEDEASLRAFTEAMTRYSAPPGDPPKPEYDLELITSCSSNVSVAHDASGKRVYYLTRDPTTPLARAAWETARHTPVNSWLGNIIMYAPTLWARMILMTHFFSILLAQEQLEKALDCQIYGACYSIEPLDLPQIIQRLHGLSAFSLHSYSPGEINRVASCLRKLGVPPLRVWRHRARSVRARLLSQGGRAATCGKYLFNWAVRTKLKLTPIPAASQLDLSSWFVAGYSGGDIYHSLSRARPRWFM
Experimental: HCV NS5B RdRp cloning, expression, and purification. The cDNA encoding the NS5B protein of HCV, genotype 1b, was cloned into the pET21a expression vector. The protein was expressed with an 18 amino acid C-terminal truncation to enhance the solubility. The E. coli competent cell line BL21(DE3) was used for expression of the protein. Cultures were grown at 37° C. for ˜4 hours until the cultures reached an optical density of 2.0 at 600 nm. The cultures were cooled to 20° C. and induced with 1 mM IPTG. Fresh ampicillin was added to a final concentration of 50 μg/ml and the cells were grown overnight at 20° C.
Cell pellets (3 L) were lysed for purification to yield 15-24 mgs of purified NS5B. The lysis buffer consisted of 20 mM Tris-HCl, pH 7.4, 500 mM NaCl, 0.5% triton X-100, 1 mM DTT, 1 mM EDTA, 20% glycerol, 0.5 mg/ml lysozyme, 10 mM MgCl2, 15 ug/ml deoxyribonuclease I, and Complete TM protease inhibitor tablets (Roche). After addition of the lysis buffer, frozen cell pellets were resuspended using a tissue homogenizer. To reduce the viscosity of the sample, aliquots of the lysate were sonicated on ice using a microtip attached to a Branson sonicator. The sonicated lysate was centrifuged at 100,000×g for 1 hr at 4° C. and filtered through a 0.2 μm filter unit (Corning).
The protein was purified using two sequential chromatography steps: Heparin sepharose CL-6B and polyU sepharose 4B (Pharmacia). The chromatography buffers were identical to the lysis buffer but contained no lysozyme, deoxyribonuclease I, MgCl2 or protease inhibitor and the NaCl concentration of the buffer was adjusted according to the requirements for charging the protein onto the column. Each column was eluted with a NaCl gradient which varied in length from 5-50 column volumes depending on the column type. After the final chromatography step, the resulting purity of the enzyme is >90% based on SDS-PAGE analysis. The enzyme was aliquoted and stored at −80° C.
Standard HCV NS5B RdRp enzyme assay. HCV RdRp genotype 1b assays were run in a final volume of 60 μl in 96 well plates (Corning 3600). The assay buffer is composed of 20 mM Hepes, pH 7.5, 2.5 mM KCl, 2.5 mM MgCl2, 1 mM DTT, 1.6 U RNAse inhibitor (Promega N2515), 0.01 mg/ml BSA (Sigma B6917), and 2% glycerol. All compounds were serially diluted (3-fold) in DMSO and diluted further in water such that the final concentration of DMSO in the assay was 2%. HCV RdRp genotype 1b enzyme was used at a final concentration of 28 nM. A polyA template was used at 6 nM, and a biotinylated oligo-dT12 primer was used at 180 nM final concentration. Template was obtained commercially (Amersham 27-4110). Biotinylated primer was prepared by Sigma Genosys. 3H-UTP was used at 0.6 μCi (0.29 μM total UTP). Reactions were initiated by the addition of enzyme, incubated at 30° C. for 60 min, and stopped by adding 25 μl of 50 mM EDTA containing SPA beads (4 μg/μl, Amersham RPNQ 0007). Plates were read on a Packard Top Count NXT after >1 hr incubation at room temperature.
Modified HCV NS5B RdRp enzyme assay. A modified enzyme assay was performed essentially as described for the standard enzyme assay except for the following: The biotinylated oligo dT12 primer was precaptured on streptavidin-coated SPA beads by mixing primer and beads in assay buffer and incubating at room temperature for one hour. Unbound primer was removed after centrifugation. The primer-bound beads were resuspended in 20 mM Hepes buffer, pH 7.5 and used in the assay at final concentrations of 20 nM primer and 0.67 μg/μl beads. Order of addition in the assay: enzyme (1.75 nM) was added to diluted compound followed by the addition of a mixture of template (0.36 nM), 3H-UTP (0.6 μCi, 0.29 μM), and primer-bound beads, to initiate the reaction; concentrations given are final. Reactions were allowed to proceed for 4 hours at 30° C.
IC50 values for compounds were determined using seven different [I]. […]

HCV replicon cells = assay: HCV replicon FRET / luciferase assay; type: cell-based; details: 50% reduction in FRET or luciferase activity
Experimental: FRET Assay Preparation. The HCV FRET screening assay was performed in 96-well cell culture plates. The FRET peptide (Anaspec, Inc.) (Taliani et al., Anal. Biochem. 1996, 240, 60-67) contains a fluorescence donor, EDANS, near one end of the peptide and an acceptor, DABCYL, near the other end. The fluorescence of the peptide is quenched by […] resonance energy transfer (RET) between the donor and the acceptor, but as the NS3 protease cleaves the peptide the products are released from RET quenching and the fluorescence of the donor becomes apparent. The assay reagent was made as follows: 5× cell Luciferase cell culture lysis reagent from Promega (#E153A) diluted to 1× with dH2O, NaCl added to 150 mM final, the FRET peptide diluted to 20 μM final from a 2 mM stock.
To prepare plates, HCV replicon cells, with or without a Renilla luciferase reporter gene, were trypsinized and plated in a 96-well plate with titrated test compounds added in columns 3 through 12; columns 1 and 2 contained a control compound (HCV control inhibitor), and the bottom row contained cells with DMSO only. The plates were then placed in a CO2 incubator at 37° C.
Assays. Subsequent to addition of the test compounds described above (FRET Assay Preparation), at various times the plate was removed and Alamar blue solution (Trek Diagnostics, #00-100) was added to measure cellular toxicity. After reading in a Cytoflour 4000 instrument (PE Biosystems), plates were rinsed with PBS and then used for FRET assay by the addition of 30 ul of the FRET peptide assay reagent described above (FRET Assay Preparation) per well. The plate was then placed into the Cytoflour 4000 instrument which had been set to 340 excite/490 emission, automatic mode for up to 20 cycles and the plate read in a kinetic mode. Typically, the signal to noise using an endpoint analysis after the reads was at least three-fold. Alternatively, after Alamar blue reading, plates were rinsed with PBS, then used for luciferase assay using the Promega Dual-Glo Luciferase Assay System or the Promega EnduRen Live Cell Substrate assay.
Compound analysis was performed by quantification of the relative HCV replicon inhibition and the relative cytotoxicity values. To calculate cytoxicity values, the average Alamar Blue fluorescence signals from the control wells were set as 100% non-toxic. The individual signals in each of the compound test wells were then divided by the average control signal and multiplied by 100% to determine […]. To calculate the HCV replicon inhibition values, an average background value was obtained from the two wells containing the highest amount of HCV control inhibitor at the end of the assay period. These numbers were similar to those obtained from naïve Huh-7 cells. The background numbers were then subtracted from the average signal obtained from the control wells and this number was used as 100% activity. The individual signals in each of the compound test wells were then divided by the averaged control values after background subtraction and multiplied by 100% to determine percent activity. EC50 values were calculated as the concentration which caused a 50% reduction in FRET or luciferase activity. The two numbers generated for the compound plate, percent cytoxicity and percent activity, were used to determine compounds of interest for further analysis.

Compound | IC50 (HCV NS5B) [µM] | EC50 (HCV replicon cells; Hepatitis C virus) [µM] | EC50 (HCV replicon cells) [µM]
COc1ccc2c(c1)C1CC1(C(=O)N1CCCC3CN(Cc4ccccc4)CC31)Cn1c-2c(C2CCCCC2)c2ccc(C(=O)NS(=O)(=O)N(C)C)cc21 (stereo not shown) | 0.00458 to 0.5 | 0.00458 to 0.5 | 
COc1ccc2c(c1)C1CC1(C(=O)N1CC3CNCC3C1)Cn1c-2c(C2CCCCC2)c2ccc(C(=O)NS(=O)(=O)C3CC3)cc21 (stereo not shown) | 0.00458 to 0.5 | > 1 | 
COc1ccc2c(c1)C1CC1(C(=O)N1CC3CCCN(C(=O)OC(C)(C)C)C3C1)Cn1c-2c(C2CCCCC2)c2ccc(C(=O)NS(=O)(=O)N(C)C)cc21 (stereo not shown) [drawing 20] | 0.00458 to 0.5 |  | 0.00458 to 0.5
COc1ccc2c(c1)C1CC1(C(=O)N1CC3CCCN(C(C)=O)C3C1)Cn1c-2c(C2CCCCC2)c2ccc(C(=O)NS(=O)(=O)C3CC3)cc21 (stereo not shown) [drawing 67] | 0.00458 to 0.5 | 0.00458 to 0.5 | 
COc1ccc2c(c1)C1CC1(C(=O)N1CC3CN(C(C)=O)CC3C1)Cn1c-2c(C2CCCCC2)c2ccc(C(=O)NS(=O)(=O)C3CC3)cc21 (stereo not shown) | 0.00458 to 0.5 | 0.00458 to 0.5 | 
COc1ccc2c(c1)C1CC1(C(=O)N1CC3CCCN(C(C)=O)C3C1)Cn1c-2c(C2CCCCC2)c2ccc(C(=O)NS(=O)(=O)N(C)C)cc21 (stereo not shown) [drawing 36] | 0.00458 to 0.5 |  | 0.00458 to 0.5
COc1ccc2c(c1)C1CC1(C(=O)N1C[C@@H]3CCCN3C[C@@H]1Cc1ccccc1)Cn1c-2c(C2CCCCC2)c2ccc(C(=O)NS(=O)(=O)N(C)C)cc21 (stereo partly shown) | 0.00458 to 0.5 | 0.00458 to 0.5 | 
COc1ccc2c(c1)C1CC1(C(=O)N1CC3CCCN(C(C)=O)C3C1)Cn1c-2c(C2CCCCC2)c2ccc(C(=O)NS(=O)(=O)C3CC3)cc21 (stereo not shown) [drawing 68] | 0.00458 to 0.5 |  | 0.00458 to 0.5
COc1ccc2c(c1)C1CC1(C(=O)N1CCN3CCCC3C1)Cn1c-2c(C2CCCCC2)c2ccc(C(=O)NS(=O)(=O)C(C)C)cc21 (stereo not shown) | 0.00458 to 0.5 | 0.00458 to 0.5 | 
COc1ccc2c(c1)C1CC1(C(=O)N1CC3CN(Cc4ccccc4)CC3C1)Cn1c-2c(C2CCCCC2)c2ccc(C(=O)NS(N)(=O)=O)cc21 (stereo not shown) | 0.00458 to 0.5 | 0.00458 to 0.5 | 
COc1ccc2c(c1)C1CC1(C(=O)N1CC3CCCNC3C1)Cn1c-2c(C2CCCCC2)c2ccc(C(=O)NS(=O)(=O)N(C)C)cc21 (stereo not shown) | 0.00458 to 0.5 | 0.00458 to 0.5 | 
COc1ccc2c(c1)C1CC1(C(=O)N1CC3CN(C)CC3C1)Cn1c-2c(C2CCCCC2)c2ccc(C(=O)NS(=O)(=O)N(C)C)cc21 (stereo not shown) | 0.00458 to 0.5 | 0.00458 to 0.5 | 
COc1ccc2c(c1)C1CC1(C(=O)N1CCN3CCCC3C1)Cn1c-2c(C2CCCCC2)c2ccc(C(=O)NS(=O)(=O)N(C)C)cc21 (stereo not shown) | 0.00458 to 0.5 | 0.00458 to 0.5 | 
COc1ccc2c(c1)C1CC1(C(=O)N1CCC[C@H]3CN(Cc4ccccc4)C[C@H]31)Cn1c-2c(C2CCCCC2)c2ccc(C(=O)NS(N)(=O)=O)cc21 (stereo partly shown) | 0.00458 to 0.5 | 0.00458 to 0.5 | 
COc1ccc2c(c1)[C@@H]1C[C@]1(C(=O)N1CC3CCCN(C(C)=O)C3C1)Cn1c-2c(C2CCCCC2)c2ccc(C(=O)NS(=O)(=O)N(C)C)cc21 (stereo partly shown) [drawing 73] | 0.00458 to 0.5 |  | 0.00458 to 0.5
COc1ccc2c(c1)C1CC1(C(=O)N1CCC[C@H]3CN(C(C)=O)C[C@H]31)Cn1c-2c(C2CCCCC2)c2ccc(C(=O)NS(=O)(=O)N(C)C)cc21 (stereo partly shown) | 0.00458 to 0.5 | 0.00458 to 0.5 | 
COc1ccc2c(c1)[C@@H]1C[C@]1(C(=O)N1CCN3CCC[C@@H]3C1)Cn1c-2c(C2CCCCC2)c2ccc(C(=O)NS(=O)(=O)N(C)C)cc21 | 0.00458 to 0.5 | 0.00458 to 0.5 | 
COc1ccc2c(c1)C1CC1(C(=O)N1CCN3CCCC3C1)Cn1c-2c(C2CCCCC2)c2ccc(C(=O)NS(N)(=O)=O)cc21 (stereo not shown) | 0.00458 to 0.5 | 0.00458 to 0.5 | 
COc1ccc2c(c1)C1CC1(C(=O)N1CCN3CCC[C@@H]3C1)Cn1c-2c(C2CCCCC2)c2ccc(C(=O)NS(=O)(=O)N3CCC3)cc21 (stereo partly shown) | 0.00458 to 0.5 | 0.00458 to 0.5 | 
COc1ccc2c(c1)C1CC1(C(=O)N1CCN3CCCC3C1)Cn1c-2c(C2CCCCC2)c2ccc(C(=O)NS(=O)(=O)C3CC3)cc21 (stereo not shown) | 0.00458 to 0.5 | 0.00458 to 0.5 | 
COc1ccc2c(c1)C1CC1(C(=O)N1CCN3CCC[C@@H]3C1)Cn1c-2c(C2CCCCC2)c2ccc(C(=O)NS(=O)(=O)C3CC3)cc21 (stereo partly shown) | 0.00458 to 0.5 | 0.00458 to 0.5 | 
COc1ccc2c(c1)[C@@H]1C[C@]1(C(=O)N1CCN3CCC[C@H]3C1)Cn1c-2c(C2CCCCC2)c2ccc(C(=O)NS(=O)(=O)N(C)C)cc21 | 0.00458 to 0.5 | 0.00458 to 0.5 | 
COc1ccc2c(c1)C1CC1(C(=O)N1CCN3CCC[C@@H]3C1)Cn1c-2c(C2CCCCC2)c2ccc(C(=O)NS(=O)(=O)N3CCOCC3)cc21 (stereo partly shown) | 0.00458 to 0.5 | 0.00458 to 0.5 | 
COc1ccc2c(c1)C1CC1(C(=O)N1CC3CCCN(C(=O)OC(C)(C)C)C3C1)Cn1c-2c(C2CCCCC2)c2ccc(C(=O)NS(=O)(=O)N(C)C)cc21 (stereo not shown) [drawing 24] | 0.00458 to 0.5 | 0.00458 to 0.5 | 
COc1ccc2c(c1)C1CC1(C(=O)N1CCN3CCC[C@H]3C1)Cn1c-2c(C2CCCCC2)c2ccc(C(=O)NS(C)(=O)=O)cc21 (stereo partly shown) | 0.00458 to 0.5 | 0.00458 to 0.5 | 
COc1ccc2c(c1)C1CC1(C(=O)N1C[C@H]3CN(Cc4ccccc4)C[C@H]3C1)Cn1c-2c(C2CCCCC2)c2ccc(C(=O)NS(=O)(=O)N(C)C)cc21 (stereo partly shown) | 0.00458 to 0.5 | 0.00458 to 0.5 | 
